Source: patent US9682962B2, “Pyrazolyl pyrimidinamine compound and application thereof” (SHENYANG SINOCHEM AGROCHEMICALS R&D CO., LTD., priority 2013, dated 2017)

Columns and labels:
[1] = tested on: cucumber downy mildew; assay: Protectant activity in vivo (whole plant), cucumber downy mildew; details: protectant activity
Procedure: (§1) The method is as followed: The whole plant is used in this test. The compound is dissolved in a proper solvent to get mother solution. The proper solvent is selected from acetone, methanol, DMF and so on according to their dissolving capability to the sample. […] The testing solution is sprayed to the host plant by a special plant sprayer. The plant is inoculated with fungus after 24 hours. According to the infecting characteristic of fungus, the plant is stored in a humidity chamber and then transferred into greenhouse after infection is finished. And the other plants are placed in greenhouse directly.

[2] = tested on: Green peach aphids (Myzus Persicae Sulzer); assay: Bioactivity test against green peach aphid (airbrush foliar spray); type: in vivo
Procedure: Compounds were dissolved in mixed solvent (acetone:methanol=1:1), and diluted to required concentration with water containing 0.1% of tween 80.
Diamond back moth, armyworm, peach aphid and carmine spider mite were used as targets and the method of spraying by airbrush was used for determination of insecticidal bioassays.
Method: Filter papers were put in culture dishes (Diameter=6 cm), and water was dripped on filter papers for preserving moisture. Green peach aphids (Myzus Persicae Sulzer) were maintained on cabbage. Leaves (Diameter=3 cm) of approximately 15-30 aphids were put in the culture dishes. Bioactivity tests were used the method of Airbrush Foliar Spray, pressure=10 psi (0.7 kg/cm2), spray volume=0.5 mL. The studies were conducted at […] 25±1 C in incubator cabinets with 60±5% RH. Survey the survival aphids after 48 h and calculate the death rates.

[3] = tested on: cucumber anthracnose; assay: Protectant activity in vivo (whole plant), cucumber anthracnose; details: protectant activity
Procedure: as §1

[4] = tested on: wheat powdery mildew; assay: Protectant activity in vivo (whole plant), wheat powdery mildew; details: for control effect against wheat powdery mildew (%): protectant activity
Procedure: as §1

| Structure (SMILES) | control effect against cucumber downy mildew(%) ([1]; 25 mg/L) | control effect against cucumber downy mildew(%) ([1]; 50 mg/L) | control effect against cucumber downy mildew(%) ([1]; 100 mg/L) | control effect against cucumber downy mildew(%) ([1]; 400 mg/L) | Insecticidal activity against peach aphid (%) ([2]; 10 mg/L) | Insecticidal activity against peach aphid (%) ([2]; 100 mg/L) | Insecticidal activity against peach aphid (%) ([2]; 600 mg/L) | control effect against wheat powdery mildew (%) ([4]; 100 mg/L) | control effect against wheat powdery mildew (%) ([4]; 400 mg/L) | control effect against wheat powdery mildew (%) ([4]; 6.25 mg/L) | control effect against wheat powdery mildew (%) ([4]; 25 mg/L) | other results |
| --- | --- | --- | --- | --- | --- | --- | --- | --- | --- | --- | --- | --- |
| Cc1ccc(-n2cc(CCNc3ncnc(C(F)F)c3Cl)cn2)cc1 [Compound 853] | 80% | 100% | 100% | 100% |  |  |  |  |  |  |  |  |
| CCc1ncnc(NCCc2cnn(-c3ccc(C)cc3)c2)c1Cl [Compound 575] |  |  |  |  | 73% | 88% | 92% |  |  |  |  |  |
| Cc1ncnc(NCCc2cnn(C(C)(C)C)c2)c1Cl [Compound 8] |  |  |  |  |  |  |  | 100% | 100% |  |  | control effect against cucumber anthracnose (%) ([3]; 6.25 mg/L): 60%; control effect against cucumber anthracnose (%) ([3]; 25 mg/L): 80%; control effect against cucumber anthracnose (%) ([3]; 100 mg/L): 90%; control effect against cucumber anthracnose (%) ([3]; 400 mg/L): 100% |
| COc1ccc(-n2cc(CCNc3ncnc(C(F)F)c3Cl)cn2)cc1 [Compound 868] | 100% | 100% | 100% | 100% |  |  |  | 100% | 100% | 100% | 100% | control effect against cucumber downy mildew(%) ([1]; 12.5 mg/L): 85%; protectant activity against wheat powdery mildew in vivo ([4]; 1.6 ppm): 80% |
| CCc1ncnc(NCCc2cnn(-c3ccc(F)cc3)c2)c1Cl [Compound 522] |  |  |  |  | 33% | 96% | 100% |  |  |  |  |  |
| Cc1ncnc(NCCc2cnn(-c3ccc(Cl)cc3Cl)c2)c1Cl [Compound 261] | 100% | 100% | 100% | 100% |  |  |  | 80% | 100% | 50% | 60% | control effect against cucumber downy mildew(%) ([1]; 12.5 mg/L): 100% |
| Cc1ncnc(NCCc2cnn(-c3ccc(F)cc3)c2)c1Cl [Compound 244] |  |  |  |  | 65% | 71% | 91% | 100% | 100% | 50% | 80% |  |
| COc1ccc(-n2cc(CCNc3ncnc(C)c3Cl)cn2)cc1 [Compound 312] | 100% | 100% | 100% | 100% |  |  |  | 100% | 100% | 95% | 100% |  |
| Fc1ccc(-n2cc(CCNc3ncnc(C(F)F)c3Cl)cn2)cc1 [Compound 800] | 98% | 100% | 100% | 100% | 71% | 100% | 100% | 100% | 100% | 95% | 100% |  |
| FC(F)c1ncnc(NCCc2cnn(-c3ccc(OC(F)(F)F)cc3)c2)c1Cl [Compound 874] |  |  |  |  |  |  |  | 100% | 100% | 100% | 100% | control effect against cucumber anthracnose (%) ([3]; 0.78 mg/L): 0%; control effect against cucumber anthracnose (%) ([3]; 1.56 mg/L): 20%; control effect against cucumber anthracnose (%) ([3]; 3.13 mg/L): 60%; control effect against cucumber anthracnose (%) ([3]; 6.25 mg/L): 98%; control effect against cucumber anthracnose (%) ([3]; 25 mg/L): 100%; control effect against cucumber anthracnose (%) ([3]; 100 mg/L): 100%; control effect against cucumber anthracnose (%) ([3]; 400 mg/L): 100% |
| Cc1ncnc(NCCc2cnn(-c3ccc(C(F)(F)F)cc3)c2)c1Cl [Compound 309] |  |  |  |  |  |  |  | 90% | 100% | 80% | 85% |  |
| Cc1ncnc(NCCc2cnn(-c3c(Cl)cc(C(F)(F)F)cc3Cl)c2)c1Cl [Compound 406] |  |  |  |  | 28% | 95% | 100% | 100% | 100% | 90% | 98% |  |
| CCc1ncnc(NCCc2cnn(-c3ccc(C(F)(F)F)cc3)c2)c1Cl [Compound 587] |  |  |  |  |  | 93% | 100% |  |  |  |  |  |
| CCc1ncnc(NCCc2cnn(-c3ccc(OC)cc3)c2)c1Cl [Compound 590] | 100% | 100% | 100% | 100% |  |  |  |  |  |  |  |  |
| CCc1ncnc(NCCc2cnn(-c3ccc(OC(F)(F)F)cc3)c2)c1Cl [Compound 596] |  |  |  |  |  |  |  | 100% | 100% | 95% | 100% | control effect against cucumber anthracnose (%) ([3]; 6.25 mg/L): 75%; control effect against cucumber anthracnose (%) ([3]; 25 mg/L): 98%; control effect against cucumber anthracnose (%) ([3]; 100 mg/L): 100%; control effect against cucumber anthracnose (%) ([3]; 400 mg/L): 100% |
| FC(F)c1ncnc(NCCc2cnn(Cc3ccc(Cl)cc3)c2)c1Cl [Compound 5935] | 95% | 100% | 100% | 100% | 61% | 56% | 100% |  |  |  |  | control effect against cucumber downy mildew(%) ([1]; 12.5 mg/L): 50% |
| FC(F)c1ncnc(NCCc2cnn(-c3ccc(Cl)cc3)c2)c1Cl [Compound 815] |  |  |  |  | 41% | 94% | 100% | 100% | 100% | 80% | 100% |  |
| CCc1ncnc(NCCc2cnn(-c3ncccc3Cl)c2)c1Cl [Compound 4733] |  |  |  |  | 88% | 100% | 100% |  |  |  |  | control against Green Peach Aphid (death rate) ([2]; 10 ppm, after 48 h): more than 80% |
| COc1ccc(-n2cc(CCNc3nc(C)nc(C)c3Cl)cn2)cc1 [Compound 1424] | 98% | 100% | 100% | 100% |  |  |  |  |  |  |  |  |
| CCc1ncnc(NCCc2cnn(-c3ccc(Cl)cc3Cl)c2)c1Cl [Compound 539] | 100% | 100% | 100% | 100% |  |  |  |  |  |  |  |  |
